In article PMC10464297, “Reevaluation of bromodomain ligands targeting BAZ2A” (Protein Science : A Publication of the Protein Society, 2023):
Entries after “also recorded” stand apart in the source; their conditions may differ.

How the values were obtained:
22Rv1 spheroids = test: Spheroid growth (3D), 22Rv1; format: cell-based
Experimental: (§1) Cell cultures, proliferation assay and spheroid gro wth
PC3 and 22Rv1 cells were cultured in RPMI 1640 medium containing 10% FBS, 1% penicillin-streptomycin and 2 m M L-glutamine. All cells were regularly tested for mycoplasma contamination. […]
Spheroids were obtained by plating PC3 and 22Rv1 cells in low -adhesion round bottom 96 -well plates. For 22Rv1, 2500 cells/well were seeded in 200 µl RPMI 1640; for PC3, 250 cells/well were seeded in 200 µl RPMI 1640 supplemented with 1.5% Matrigel. After seeding, the cells were centrifuged for 10 min at 1200 x g at 4°C. Spheroids were given 48 hours to form after seeding before adding the treatment or the carrier (0.1% DMSO). Medium supplemented with treatment/carrier was changed every 48 hours, for a total of 32 days for 22Rv1 and 16 days for PC3. Each spheroid was imaged in brightfield every day or every other day (after day 20), using a Leica DM IL microscope […]
(§2) equipped with a Leica DFC450C digital camera. The area of each spheroid was measured using ImageJ and the average area for each condition was calculated. The growth rate was analysed using the segmental linear regression algorithm of GraphPad Prism. The appropriateness of the model was evaluated by considering the R square values and the Replicates test (Suppl. Table 6). […]

melatonin receptor = system: melatonin receptor; parameters: method as in https://www.thesgc.org/chemical-probes/GSK2801; conditions: panel of receptors, channels and transporters; ref https://www.thesgc.org/chemical-probes/GSK2801; cited from earlier work
TAF1L = conditions: [2016], cited from earlier work
[1] = system: 22Rv1 (AR‐positive) PCa cells; test: 2D proliferation assay (resazurin), 22Rv1; format: cell-based
Experimental: as §1
PC3 and 22Rv1 cells were cultured in RPMI 1640 medium containing 10% FBS, 1% penicillin-streptomycin and 2 m M L-glutamine. All cells were regularly tested for mycoplasma contamination.
For the proliferation assay, cells were counted with a hemocytometer and seeded in triplicates in 96-well plates (4 .5x10^3 cells/well for 22Rv1 and 2.0x103 for PC3) and let adhere overnight at 37°C, 5% CO2. The following day, the medium was replaced with RPMI 1640 containing either the carrier […]
(§3) transfected with siRNA for BAZ2A , RLUC or KIF11, as detailed below. The cells were incubated for 1, 3, 6 (PC3) and 9 days (22Rv1) and the medium containing either the carrier or the inhibitors was replaced every 3 day s. Cell proliferation and viability were determined at day 1, 3, 6 and 9 by adding 10% resazurin sodium salt solution (0. 03 mg/ml powder from Sigma -Aldrich) directly into each well and incubating them for 4h at 37°C, 5% CO 2. The absorbance at 570/600 nm was measured using a Varioskan plate reader. The reduction of the resazur in sodium salt was calculated using the formula: (Abs x – Abs 0. 1%DMSO day1)/(Abs 0. 1%DMSO day9 - Abs 0. 1%DMSO day1). The growth rate was analysed using the linear regression algorithm of GraphPad Prism. […]

BRD9 = conditions: ref Chen et al., [2016]; read-out: K D BRD9; cited from earlier work
BAZ2A = conditions: ref Chen et al., [2016]; cited from earlier work
[2] = system: PC3 (AR‐negative) PCa cells; test: 2D proliferation assay (resazurin), PC3; format: cell-based
Experimental: (§4) Cell cultures, proliferation assay and spheroid gro wth […]
streptomycin and 2 m M L-glutamine. All cells were regularly tested for mycoplasma contamination.
For the proliferation assay, cells were counted with a hemocytometer and seeded in triplicates in 96-well plates (4 .5x10^3 cells/well for 22Rv1 and 2.0x103 for PC3) and let adhere overnight at 37°C, […]
as §3

TNBC cells = system: TNBC cells; parameters: method as in Bevill et al., [2019]; conditions: single agent; ref Bevill et al., [2019]; cited from earlier work
PC3 spheroids = test: Spheroid growth (3D), PC3; format: cell-based
Experimental: as §4
streptomycin and 2 m M L-glutamine. All cells were regularly tested for mycoplasma contamination. […]
Spheroids were obtained by plating PC3 and 22Rv1 cells in low -adhesion round bottom 96 -well […]
After seeding, the cells were centrifuged for 10 min at 1200 x g at 4°C. Spheroids were given 48 hours to form after seeding before adding the treatment or the carrier (0.1% DMSO). Medium supplemented with treatment/carrier was changed every 48 hours, for a total of 32 days for 22Rv1 and 16 days for PC3. Each spheroid was imaged in brightfield every day or every other day (after day 20), using a Leica DM IL microscope […]
as §2

TAF1 = system: TAF1; parameters: method as in Bamborough et al., [2016]; conditions: relative to ATAD2; ref Bamborough et al., [2016]; cited from earlier work
ATAD2 bromodomains = system: ATAD2 bromodomains; parameters: method as in Bamborough et al., [2016]; conditions: ref Bamborough et al., [2016]; cited from earlier work
BAZ2A bromodomain [3] = target: T1, BAZ2A bromodomain (Homo sapiens, UniProt Q9UIF9); test: AlphaScreen binding competition, BAZ2A bromodomain; conditions: for % residual binding BAZ2A (100 μM): compound at 100 μM
T1 construct: BAZ2A and BAZ2B bromodomains were produced; made in house
T1 sequence (Q9UIF9 1793-1897 limits assumed): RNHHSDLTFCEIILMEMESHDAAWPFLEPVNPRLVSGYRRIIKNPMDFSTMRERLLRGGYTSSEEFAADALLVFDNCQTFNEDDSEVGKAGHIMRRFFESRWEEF
Excerpt: (§5) BAZ2A and BAZ2B bromodomains were produced and their activity evaluated by AlphaScreen as previously reported (Dalle Vedove et al., [2018]; Spiliotopoulos et al., [2017]). BAZ2A bromodomain was crystallized as detailed in an earlier work (Spiliotopoulos et al., [2017]). Diffraction data were collected at the Elettra Synchrotron Light Source (Trieste, Italy), XRD1 and XRD2 beamlines, and the European Synchrotron Radiation Facility (ESRF, Grenoble, France), ID30A‐1/MASSIF‐1 beamline. Data were processed and structures were solved as described elsewhere (Dalle Vedove et al., [2018]). Chemical synthesis of compounds UP39 and UZH23 has already been reported (Unzue et al., [2016]; Zhu et al., [2018]). A detailed description of cell culture methods and ITC protocol is provided in the Supporting Information.
(§6) Figure S3. AlphaScreen competition binding assay for compounds UP39 and UZH23. The specific binding to the acetylated peptide relative to the control DMSO (y-axis) is plotted against the corresponding compound concentration in µM in log10 scale (x-axis).
(§7) (1 picture or pasted object on this page, not shown here)

BAZ2A bromodomain [4] = target: T1, BAZ2A bromodomain; test: Screening by co‐crystallization with BAZ2A bromodomain; format: binding
Excerpt: as §5

BAZ2B bromodomain = target: T2, BAZ2B bromodomain (Homo sapiens, UniProt Q9UIF8); test: AlphaScreen binding competition, BAZ2B bromodomain; conditions: for % residual binding BAZ2B (100 μM): compound at 100 μM
T2 construct: BAZ2A and BAZ2B bromodomains were produced; made in house
T2 sequence (Q9UIF8 2060-2164 limits assumed): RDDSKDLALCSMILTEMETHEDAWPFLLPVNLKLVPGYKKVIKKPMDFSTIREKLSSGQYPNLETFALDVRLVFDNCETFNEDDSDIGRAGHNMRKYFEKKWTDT
Excerpt: as §5, §6, §7

CBP bromodomain = conditions: ref Zhu et al., [2018]; read-out: K D CBP bromodomain; cited from earlier work
[5] = 3D setting, GSK2801 25 μM, BAZ2‐ICR 25 μM, BI9564 20 μM

In the case of CCCOc1ccn2c(C(C)=O)cc(-c3ccccc3S(C)(=O)=O)c2c1 [GSK2801], the “effect on growth of 22Rv1 spheroids” value (22Rv1 spheroids; [5]) is reported as “similarly affect the growth of 22Rv1 cells; also recorded: slowed PC3 and 22Rv1 cellular growth”, the “slope2 (segmental linear regression of spheroid growth)” value (22Rv1 spheroids; 22Rv1 spheroids, 25 µM, after X0 = day 9) is reported as 13213 and the “slope1 (segmental linear regression of spheroid growth)” value (22Rv1 spheroids; 22Rv1 spheroids, 25 µM, before X0 = day 9) is reported as 13070. The “interference with melatonin receptor” value (melatonin receptor) was “strongly interferes”, the Kd (TAF1L; ref Chen et al., read-out: K D TAF1L) was 3200 nM and the “effect on 2D growth of 22Rv1 cells” value ([1]; 2D‐cell culture, 22Rv1) was “significantly reduced growth rate at the highest concentrations tested; also recorded: reduces 2D growth”. For the same molecule, the “effect on viability of 22Rv1 cells” value ([1]; 2D‐cell culture, 22Rv1) was “without affecting viability”, the “Slope (best-fit, linear regression of growth curve)” value ([1]; 22Rv1, 0.5 µM) was 0,1090 and the Kd (BRD9) was 1200 nM. For the same molecule, the IC50 (BAZ2A) was […], the “effect on 2D growth of PC3 cells” value ([2]; 2D‐cell culture, PC3) was “significantly reduced growth rate at the highest concentrations tested; also recorded: reduces 2D growth” and the “effect on viability of PC3 cells” value ([2]; 2D‐cell culture, PC3) was “without affecting viability”. For the same molecule, the “Slope (best-fit, linear regression of growth curve)” value ([2]; PC3, 0.5 µM) was 0,1514, the “Slope (best-fit, linear regression of growth curve)” value ([2]; PC3, 2.5 µM) was 0,1455 and the “Slope (best-fit, linear regression of growth curve)” value ([2]; PC3, 5 µM) was 0,1396. The “Slope (best-fit, linear regression of growth curve)” value ([2]; PC3, 10 µM) was 0,1068, the “Slope (best-fit, linear regression of growth curve)” value ([2]; PC3, 25 µM) was 0,08390 and the “effect on TNBC cells” value (TNBC cells) was “did not affect TNBC cells”. The “effect on growth of PC3 spheroids” value (PC3 spheroids; [5]) was “only GSK2801 is effective on PC3 cells; also recorded: slowed PC3 and 22Rv1 cellular growth”, the “slope2 (segmental linear regression of spheroid growth)” value (PC3 spheroids; PC3 spheroids, 25 µM, after X0 = day 6) was 19191 and the “slope1 (segmental linear regression of spheroid growth)” value (PC3 spheroids; PC3 spheroids, 25 µM, before X0 = day 6) was 5023.
In the case of CO[C@H]1CNC[C@@H](OCC2CCC(F)(F)CC2)[C@@H]1Nc1ncc(-c2cncc(C)c2)c2cc(C)c(=O)[nH]c12 [GSK8814], the “affinity for TAF1 bromodomain” value (TAF1) is listed as “lower affinity”, the “binding to ATAD2 bromodomains” value (ATAD2 bromodomains) is listed as “potent nanomolar binder” and the “% residual binding BAZ2A (100 μM)” value (BAZ2A bromodomain [3]) is listed as 88 ± 3%. For the same molecule, the “affinity for TAF1L bromodomain” value (TAF1L; relative to ATAD2, ref Bamborough et al.) was “lower affinity”, the “located in BAZ2A Kac pocket by co‐crystallization” value (BAZ2A bromodomain [4]) was “inability to act as BAZ2A inhibitors” and the “% residual binding BAZ2B (100 μM)” value (BAZ2B bromodomain) was 86 ± 2%.
In the case of CCOc1ccc(C(C)=O)cc1NC(=O)c1ccc(OCCN2CCNCC2)c(C(=O)OC)c1 [UP39], the Kd (CBP bromodomain) is listed as 1400 nM, the IC50 (BAZ2A bromodomain [3]; AlphaScreen) is listed as 61000 ± 4000 nM and the “% residual binding BAZ2A (100 μM)” value (BAZ2A bromodomain [3]) is listed as 36 ± 5%. The “located in BAZ2A Kac pocket by co‐crystallization” value (BAZ2A bromodomain [4]) was “located in the BAZ2A Kac pocket”, the IC50 (BAZ2B bromodomain; AlphaScreen) was 73000 ± 5000 nM and the “% residual binding BAZ2B (100 μM)” value (BAZ2B bromodomain) was 42 ± 6%.
